Test results reported in BigSolDB 2.1.

O=Cc1ccc(O)cc1
Details | solubility (mole fraction)
in 1,4-dioxane, 283.15 K | 0.0467
in 1,4-dioxane, 285.65 K | 0.0555
in 1,4-dioxane, 288.15 K | 0.0655
in 1,4-dioxane, 290.65 K | 0.0772
in 1,4-dioxane, 293.15 K | 0.0905
in 1,4-dioxane, 295.65 K | 0.106
in 1,4-dioxane, 298.15 K | 0.123
in 1,4-dioxane, 300.65 K | 0.141
in 1,4-dioxane, 303.15 K | 0.163
in 1,4-dioxane, 305.65 K | 0.186
in 1,4-dioxane, 308.15 K | 0.211
in 1,4-dioxane, 310.65 K | 0.238
in 1,4-dioxane, 313.15 K | 0.267
in 1,4-dioxane, 315.65 K | 0.299
in 1,4-dioxane, 318.15 K | 0.334
in 2-butanone, 278.15 K | 0.0731
in 2-butanone, 280.65 K | 0.0822
in 2-butanone, 283.15 K | 0.0911
in 2-butanone, 285.65 K | 0.101
in 2-butanone, 288.15 K | 0.111
in 2-butanone, 290.65 K | 0.123
in 2-butanone, 293.15 K | 0.135
in 2-butanone, 295.65 K | 0.148
in 2-butanone, 298.15 K | 0.163
in 2-butanone, 300.65 K | 0.177
in 2-butanone, 303.15 K | 0.194
in 2-butanone, 305.65 K | 0.21
in 2-butanone, 308.15 K | 0.229
in 2-butanone, 310.65 K | 0.247
in 2-butanone, 313.15 K | 0.267
in 2-butanone, 315.65 K | 0.288
in 2-butanone, 318.15 K | 0.309
in DMF, 278.15 K | 0.0741
in DMF, 280.65 K | 0.0863
in DMF, 283.15 K | 0.0997
in DMF, 285.65 K | 0.114
in DMF, 288.15 K | 0.131
in DMF, 290.65 K | 0.148
in DMF, 293.15 K | 0.168
in DMF, 295.65 K | 0.191
in DMF, 298.15 K | 0.214
in DMF, 300.65 K | 0.241
in DMF, 303.15 K | 0.27
in DMF, 305.65 K | 0.302
in DMF, 308.15 K | 0.338
in DMF, 310.65 K | 0.376
in DMF, 313.15 K | 0.416
in DMF, 315.65 K | 0.458
in DMF, 318.15 K | 0.504
in acetone, 278.15 K | 0.0713
in acetone, 280.65 K | 0.0796
in acetone, 283.15 K | 0.0889
in acetone, 285.65 K | 0.0986
in acetone, 288.15 K | 0.109
in acetone, 290.65 K | 0.12
in acetone, 293.15 K | 0.133
in acetone, 295.65 K | 0.145
in acetone, 298.15 K | 0.159
in acetone, 300.65 K | 0.174
in acetone, 303.15 K | 0.189
in acetone, 305.65 K | 0.205
in acetone, 308.15 K | 0.222
in acetone, 310.65 K | 0.24
in acetone, 313.15 K | 0.259
in acetone, 315.65 K | 0.279
in acetone, 318.15 K | 0.299
in acetonitrile, 278.15 K | 0.0318
in acetonitrile, 280.65 K | 0.036
in acetonitrile, 283.15 K | 0.0405
in acetonitrile, 285.65 K | 0.0454
in acetonitrile, 288.15 K | 0.0508
in acetonitrile, 290.65 K | 0.0567
in acetonitrile, 293.15 K | 0.0632
in acetonitrile, 295.65 K | 0.0704
in acetonitrile, 298.15 K | 0.0782
in acetonitrile, 300.65 K | 0.0867
in acetonitrile, 303.15 K | 0.0957
in acetonitrile, 305.65 K | 0.106
in acetonitrile, 308.15 K | 0.116
in acetonitrile, 310.65 K | 0.128
in acetonitrile, 313.15 K | 0.14
in acetonitrile, 315.65 K | 0.154
in acetonitrile, 318.15 K | 0.168
in ethanol, 278.15 K | 0.043
in ethanol, 280.65 K | 0.0493
in ethanol, 283.15 K | 0.0563
in ethanol, 285.65 K | 0.0639
in ethanol, 288.15 K | 0.0725
in ethanol, 290.65 K | 0.0815
in ethanol, 293.15 K | 0.0914
in ethanol, 295.65 K | 0.102
in ethanol, 298.15 K | 0.115
in ethanol, 300.65 K | 0.128
in ethanol, 303.15 K | 0.142
in ethanol, 305.65 K | 0.156
in ethanol, 308.15 K | 0.173
in ethanol, 310.65 K | 0.191
in ethanol, 313.15 K | 0.209
in ethanol, 315.65 K | 0.227
in ethanol, 318.15 K | 0.247
in ethyl acetate, 278.15 K | 0.0708
in ethyl acetate, 280.65 K | 0.0787
in ethyl acetate, 283.15 K | 0.0877
in ethyl acetate, 285.65 K | 0.0968
in ethyl acetate, 288.15 K | 0.106
in ethyl acetate, 290.65 K | 0.117
in ethyl acetate, 293.15 K | 0.129
in ethyl acetate, 295.65 K | 0.141
in ethyl acetate, 298.15 K | 0.155
in ethyl acetate, 300.65 K | 0.169
in ethyl acetate, 303.15 K | 0.184
in ethyl acetate, 305.65 K | 0.2
in ethyl acetate, 308.15 K | 0.216
in ethyl acetate, 310.65 K | 0.234
in ethyl acetate, 313.15 K | 0.251
in ethyl acetate, 315.65 K | 0.272
in ethyl acetate, 318.15 K | 0.293
in isopropanol, 278.15 K | 0.0535
in isopropanol, 280.65 K | 0.0607
in isopropanol, 283.15 K | 0.0683
in isopropanol, 285.65 K | 0.0773
in isopropanol, 288.15 K | 0.0868
in isopropanol, 290.65 K | 0.0972
in isopropanol, 293.15 K | 0.109
in isopropanol, 295.65 K | 0.121
in isopropanol, 298.15 K | 0.134
in isopropanol, 300.65 K | 0.148
in isopropanol, 303.15 K | 0.164
in isopropanol, 305.65 K | 0.18
in isopropanol, 308.15 K | 0.198
in isopropanol, 310.65 K | 0.218
in isopropanol, 313.15 K | 0.238
in isopropanol, 315.65 K | 0.259
in isopropanol, 318.15 K | 0.281
in methanol, 278.15 K | 0.0342
in methanol, 280.65 K | 0.0392
in methanol, 283.15 K | 0.0449
in methanol, 285.65 K | 0.0516
in methanol, 288.15 K | 0.0587
in methanol, 290.65 K | 0.0668
in methanol, 293.15 K | 0.076
in methanol, 295.65 K | 0.0858
in methanol, 298.15 K | 0.0969
in methanol, 300.65 K | 0.109
in methanol, 303.15 K | 0.121
in methanol, 305.65 K | 0.136
in methanol, 308.15 K | 0.151
in methanol, 310.65 K | 0.168
in methanol, 313.15 K | 0.186
in methanol, 315.65 K | 0.205
in methanol, 318.15 K | 0.224
in n-butanol, 278.15 K | 0.0545
in n-butanol, 280.65 K | 0.0615
in n-butanol, 283.15 K | 0.0692
in n-butanol, 285.65 K | 0.0775
in n-butanol, 288.15 K | 0.0864
in n-butanol, 290.65 K | 0.0963
in n-butanol, 293.15 K | 0.107
in n-butanol, 295.65 K | 0.118
in n-butanol, 298.15 K | 0.13
in n-butanol, 300.65 K | 0.143
in n-butanol, 303.15 K | 0.157
in n-butanol, 305.65 K | 0.171
in n-butanol, 308.15 K | 0.187
in n-butanol, 310.65 K | 0.203
in n-butanol, 313.15 K | 0.22
in n-butanol, 315.65 K | 0.239
in n-butanol, 318.15 K | 0.259
in n-propanol, 278.15 K | 0.0532
in n-propanol, 280.65 K | 0.0597
in n-propanol, 283.15 K | 0.0669
in n-propanol, 285.65 K | 0.0751
in n-propanol, 288.15 K | 0.0836
in n-propanol, 290.65 K | 0.093
in n-propanol, 293.15 K | 0.103
in n-propanol, 295.65 K | 0.114
in n-propanol, 298.15 K | 0.125
in n-propanol, 300.65 K | 0.138
in n-propanol, 303.15 K | 0.151
in n-propanol, 305.65 K | 0.165
in n-propanol, 308.15 K | 0.18
in n-propanol, 310.65 K | 0.196
in n-propanol, 313.15 K | 0.213
in n-propanol, 315.65 K | 0.23
in n-propanol, 318.15 K | 0.249
in toluene, 278.15 K | 0.000979
in toluene, 280.65 K | 0.00109
in toluene, 283.15 K | 0.00119
in toluene, 285.65 K | 0.00133
in toluene, 288.15 K | 0.00146
in toluene, 290.65 K | 0.00162
in toluene, 293.15 K | 0.00178
in toluene, 295.65 K | 0.00197
in toluene, 298.15 K | 0.00217
in toluene, 300.65 K | 0.00236
in toluene, 303.15 K | 0.00259
in toluene, 305.65 K | 0.00283
in toluene, 308.15 K | 0.00309
in toluene, 310.65 K | 0.0034
in toluene, 313.15 K | 0.00367
in toluene, 315.65 K | 0.00399
in toluene, 318.15 K | 0.00435
